In PubChem BioAssay AID1259407 (Chemical Carcinogenesis Research Information System (CCRIS), 2018):
Calls of active or inactive are those of the source. No rule for the calls is given here.

Tested on: CCRIS mutagenicity, Ames/micronucleus/aberration tests
Assay: CCRIS mutagenicity studies
[1] = Test System: AMES SALMONELLA TYPHIMURIUM, Strain/Indicator: TA98, Metabolic Activation: NONE, Method: STANDARD PLATE
[2] = Test System: AMES SALMONELLA TYPHIMURIUM, Strain/Indicator: TA100, Metabolic Activation: NONE, Method: STANDARD PLATE
[3] = Test System: AMES SALMONELLA TYPHIMURIUM, Strain/Indicator: TA98, Metabolic Activation: NONE, Method: PREINCUBATION
[4] = Test System: AMES SALMONELLA TYPHIMURIUM, Strain/Indicator: TA100, Metabolic Activation: NONE, Method: PREINCUBATION

CCSCCSP(=O)(OC)OC
mutagenic call (Test System: AMES SALMONELLA TYPHIMURIUM, Strain/Indicator: TA97A, Metabolic Activation: NONE, Method: STANDARD PLATE): inactive; negative | mutagenic call (Test System: AMES SALMONELLA TYPHIMURIUM, Strain/Indicator: TA97A, Metabolic Activation: PLANT, HOMOGENATE, S-14, Method: STANDARD PLATE): inactive; negative | mutagenic call (Test System: AMES SALMONELLA TYPHIMURIUM, Strain/Indicator: TA97A, Metabolic Activation: S-9, Method: STANDARD PLATE): inactive; negative | mutagenic call [1]: inactive; negative | mutagenic call (Test System: AMES SALMONELLA TYPHIMURIUM, Strain/Indicator: TA98, Metabolic Activation: PLANT, HOMOGENATE, S-14, Method: STANDARD PLATE): inactive; negative | mutagenic call (Test System: AMES SALMONELLA TYPHIMURIUM, Strain/Indicator: TA98, Metabolic Activation: RAT, LIVER, S-9, Method: STANDARD PLATE): inactive; negative | mutagenic call (Test System: AMES SALMONELLA TYPHIMURIUM, Strain/Indicator: TA98, Metabolic Activation: S-9, Method: STANDARD PLATE): inactive; negative | mutagenic call (Test System: AMES SALMONELLA TYPHIMURIUM, Strain/Indicator: TA98, Metabolic Activation: WHEAT SEEDLING, S-14, Method: STANDARD PLATE): inactive; negative | mutagenic call [2]: inactive; negative | mutagenic call (Test System: AMES SALMONELLA TYPHIMURIUM, Strain/Indicator: TA100, Metabolic Activation: PLANT, HOMOGENATE, S-14, Method: STANDARD PLATE): inactive; negative | mutagenic call (Test System: AMES SALMONELLA TYPHIMURIUM, Strain/Indicator: TA100, Metabolic Activation: S-9, Method: STANDARD PLATE): inactive; negative | mutagenic call (Test System: AMES SALMONELLA TYPHIMURIUM, Strain/Indicator: TA102, Metabolic Activation: NONE, Method: STANDARD PLATE): inactive; negative | mutagenic call (Test System: AMES SALMONELLA TYPHIMURIUM, Strain/Indicator: TA102, Metabolic Activation: RAT, LIVER, S-9, Method: STANDARD PLATE): inactive; negative | mutagenic call (Test System: AMES SALMONELLA TYPHIMURIUM, Strain/Indicator: TA102, Metabolic Activation: WHEAT SEEDLING, S-14, Method: STANDARD PLATE): inactive; negative | mutagenic call (Test System: AMES SALMONELLA TYPHIMURIUM, Strain/Indicator: TA1535, Metabolic Activation: NONE, Method: STANDARD PLATE): inactive; negative | mutagenic call (Test System: AMES SALMONELLA TYPHIMURIUM, Strain/Indicator: TA1535, Metabolic Activation: PLANT, HOMOGENATE, S-14, Method: STANDARD PLATE): inactive; negative | mutagenic call (Test System: AMES SALMONELLA TYPHIMURIUM, Strain/Indicator: TA1535, Metabolic Activation: RAT, LIVER, S-9, Method: STANDARD PLATE): inactive; negative | mutagenic call (Test System: AMES SALMONELLA TYPHIMURIUM, Strain/Indicator: TA1535, Metabolic Activation: S-9, Method: STANDARD PLATE): inactive; negative | mutagenic call (Test System: AMES SALMONELLA TYPHIMURIUM, Strain/Indicator: TA1535, Metabolic Activation: WHEAT SEEDLING, S-14, Method: STANDARD PLATE): inactive; negative

CC/C=C\C#N
mutagenic call (Test System: MOUSE LYMPHOMA, Strain/Indicator: L5178Y (TK+/TK-), Metabolic Activation: NONE, Method: SUSPENSION/PLATE): active; positive. reevaluation of results: positive | mutagenic call (Test System: Mouse lymphoma, Strain/Indicator: L5178Y (tk+/tk-), Metabolic Activation: Rat, Liver, S-9, Aroclor 1254, Method: Suspension/plate): active; positive

Cc1ccc(N)c(N)c1
mutagenic call (Test System: AMES SALMONELLA TYPHIMURIUM, Strain/Indicator: TA97, Metabolic Activation: HAMSTER, LIVER, S-9, AROCLOR 1254 (10%), Method: PREINCUBATION): inactive; negative | mutagenic call (Test System: AMES SALMONELLA TYPHIMURIUM, Strain/Indicator: TA97, Metabolic Activation: NONE, Method: PREINCUBATION): inactive; negative | mutagenic call (Test System: AMES SALMONELLA TYPHIMURIUM, Strain/Indicator: TA97, Metabolic Activation: RAT, LIVER, S-9, AROCLOR 1254 (10%), Method: PREINCUBATION): active; positive | mutagenic call (Test System: AMES SALMONELLA TYPHIMURIUM, Strain/Indicator: TA98, Metabolic Activation: HAMSTER, LIVER, S-9, AROCLOR 1254 (10%), Method: PREINCUBATION): active; positive | mutagenic call [3]: inactive; negative | mutagenic call (Test System: AMES SALMONELLA TYPHIMURIUM, Strain/Indicator: TA98, Metabolic Activation: RAT, LIVER, S-9, AROCLOR 1254 (10%), Method: PREINCUBATION): active; positive | mutagenic call (Test System: AMES SALMONELLA TYPHIMURIUM, Strain/Indicator: TA100, Metabolic Activation: HAMSTER, LIVER, S-9, AROCLOR 1254 (10%), Method: PREINCUBATION): active; positive | mutagenic call [4]: inactive; negative | mutagenic call (Test System: AMES SALMONELLA TYPHIMURIUM, Strain/Indicator: TA100, Metabolic Activation: RAT, LIVER, S-9, AROCLOR 1254 (10%), Method: PREINCUBATION): active; positive | mutagenic call (Test System: AMES SALMONELLA TYPHIMURIUM, Strain/Indicator: TA1535, Metabolic Activation: HAMSTER, LIVER, S-9, AROCLOR 1254 (10%), Method: PREINCUBATION): inactive; negative | mutagenic call (Test System: AMES SALMONELLA TYPHIMURIUM, Strain/Indicator: TA1535, Metabolic Activation: NONE, Method: PREINCUBATION): inactive; negative | mutagenic call (Test System: AMES SALMONELLA TYPHIMURIUM, Strain/Indicator: TA1535, Metabolic Activation: RAT, LIVER, S-9, AROCLOR 1254 (10%), Method: PREINCUBATION): inactive; negative

O=S(=O)(O)OCc1c2ccccc2c2ccc3cccc4ccc1c2c43
mutagenic call [3]: active; positive | mutagenic call [1]: active; positive | mutagenic call [4]: active; positive | mutagenic call (Test System: CHINESE HAMSTER V-79, Strain/Indicator: V-79 (HGPRT)/6-THIOGUANINE, Metabolic Activation: NONE): active; positive | mutagenic call (Test System: CHINESE HAMSTER V-79, Strain/Indicator: V-79 (NA/K-ATPASE)/OUABAIN, Metabolic Activation: NONE): active; positive

N#CCCC(=O)/C=C/c1ccc(C(=O)O)cc1
mutagenic call [3]: inactive; negative | mutagenic call (Test System: AMES SALMONELLA TYPHIMURIUM, Strain/Indicator: TA98, Metabolic Activation: RAT, LIVER, S-9, PCB, Method: PREINCUBATION): inactive; negative | mutagenic call [4]: inactive; negative | mutagenic call (Test System: AMES SALMONELLA TYPHIMURIUM, Strain/Indicator: TA100, Metabolic Activation: RAT, LIVER, S-9, PCB, Method: PREINCUBATION): inactive; negative

CC1(C)C[C@H]2C=C(C=O)[C@]3(C=O)C[C@]3(C)[C@H]2C1
mutagenic call [1]: active; positive | mutagenic call [2]: active; positive | mutagenic call (Test System: AMES SALMONELLA TYPHIMURIUM, Strain/Indicator: TA2637, Metabolic Activation: NONE, Method: STANDARD PLATE): active; positive | mutagenic call (Test System: CHINESE HAMSTER V-79, Strain/Indicator: V-79/6-THIOGUANINE (HGPRT), Metabolic Activation: NONE): active; positive

Cc1cc2nc3c(=O)[nH]c(=O)nc-3n(C)c2cc1C
mutagenic call (Test System: AMES SALMONELLA TYPHIMURIUM, Strain/Indicator: TA97A, Metabolic Activation: NONE, Method: PREINCUBATION): inactive; negative | mutagenic call (Test System: AMES SALMONELLA TYPHIMURIUM, Strain/Indicator: TA97A, Metabolic Activation: RAT, CECAL CELL-FREE EXTRACT, Method: PREINCUBATION): active; positive | mutagenic call (Test System: AMES SALMONELLA TYPHIMURIUM, Strain/Indicator: TA97A, Metabolic Activation: RAT, LIVER, S9, AROCLOR 1254, Method: PREINCUBATION): active; positive | mutagenic call [3]: inactive; negative | mutagenic call (Test System: AMES SALMONELLA TYPHIMURIUM, Strain/Indicator: TA98, Metabolic Activation: RAT, CECAL CELL-FREE EXTRACT, Method: PREINCUBATION): inactive; negative | mutagenic call (Test System: AMES SALMONELLA TYPHIMURIUM, Strain/Indicator: TA98, Metabolic Activation: RAT, LIVER, S9, AROCLOR 1254, Method: PREINCUBATION): active; positive | mutagenic call [4]: inactive; negative | mutagenic call (Test System: AMES SALMONELLA TYPHIMURIUM, Strain/Indicator: TA100, Metabolic Activation: RAT, CECAL CELL-FREE EXTRACT, Method: PREINCUBATION): inactive; negative | mutagenic call (Test System: AMES SALMONELLA TYPHIMURIUM, Strain/Indicator: TA100, Metabolic Activation: RAT, LIVER, S9, AROCLOR 1254, Method: PREINCUBATION): inactive; negative
